Where a name gives a salt, the structure may show the parent alone. Read-outs that look alike come from different tables or passages of the source.
Tests used:
TZM-bl cells = assay: Cytotoxicity in TZM-bl cells (XTT); format: cell-based
Method: The cytotoxicity of small molecules in TZM-bl cells was measured by a colorimetric method using XTT (sodium 3′-(1-(phenylamino)-carbonyl)-3,4-tetrazolium-bis(4-methoxy-6-nitro)benzenesulfonic acid hydrate), a light yellowish tetrazolium dye. Briefly, 100 μl of a compound at graded concentrations was added to equal volume of cells (10^5/ml) in wells of 96-well plates followed by incubation at 37° C. for 3 days and addition of XTT (PolySciences, Inc., Warrington, Pa.).

MT-2 cells = assay: Cytotoxicity in MT-2 cells (XTT); format: cell-based
Method: Cytotoxicity of small molecules in MT-2 cells and PBMC was measured by the XTT ((sodium 3′-(1-(phenylamino)-carbonyl)-3,4-tetrazolium-bis(4-methoxy-6-nitro)benzene-sulfonic acid hydrate)) method. Briefly, for MT-2 cells, 100 μl of a small molecule at graded concentrations was added to an equal volume of cells (10^5 cells/ml) in 96-well plates followed by incubation at 37° C. for four days, which ran parallel with the neutralization assay in MT-2 (except medium was added instead of virus). In the case of PBMC, 5×10^5 cells/ml was used and the cytotoxicity was measured after seven days. […] The percentage cytotoxicity and the CC50 values were calculated as described above.

[1] = tested on: laboratory-adapted HIV-1 IIIB strain; conditions: read-out: MT-2 Cells IC50 (μM ± SD); multi-cycle assay, MT-2 cells, HIV-1 IIIB
Method: In brief, 1×10^4 MT-2 cells were infected with HIV-1 at 100 TCID50 (50% tissue culture infective dose) (0.01MOI) in 200 μl medium in the presence or absence of small molecules at graded concentrations and incubated overnight. The culture supernatants were then removed and replaced with fresh media. On the fourth day post-infection, 100 μl of culture supernatants were collected from each well, mixed with equal volume of 5% Triton X-100 and tested for p24 antigen by sandwich-ELISA. The percent inhibition of p24 production and IC50 values were calculated by the GraphPad Prism software (GraphPad Software Inc.).

[2] = TZM-bl cells, XTT, 3 days, read-out: TZM-bl cells CC50 (μM ± SD)
[3] = MT-2 cells, XTT, four days, read-out: MT-2 Cells CC50
[4] = at the dose given as CC50 bound

## Cc1nc(C(NC(=O)C(=O)Nc2ccc(Cl)cc2)C2CCCNC2)sc1CO (centres unmarked) [Compound 7, N^1-(4-chlorophenyl)-N^2-((5-(hydroxymethyl)-4-methylthiazol-2-yl)(piperidin-3-yl)methyl)oxalamide.2HCl]
TZM-bl cells
  CC50: ~60.2 µM
MT-2 cells
  CC50: > 81 µM
[1]
  IC50: 12 ± 1.1 µM

## Cc1nc(C(NC(=O)C(=O)Nc2ccc(Cl)cc2)C2CCNCC2)sc1CO (centres unmarked) [Compound 8, N^1-(4-chlorophenyl)-N^2-((5-(hydroxymethyl)-4-methylthiazol-2-yl)(piperidin-4-yl)methyl)oxalamide.2HCl]
TZM-bl cells
  CC50: ~81 µM
MT-2 cells
  CC50: > 81 µM
[1]
  IC50: 29.8 ± 3.5 µM

## Cc1nc(C(NC(=O)C(=O)Nc2ccc(Cl)cc2)C2CCCCN2)sc1CCO.O=CO (centres unmarked) [Compound 9, N^1-(4-chlorophenyl)-N^2-((5-(2-hydroxyethyl)-4-methylthiazol-2-yl)(piperidin-2-yl)methyl)oxalamide.HCOOH]
MT-2 cells
  % toxicity at that dose (number in parenthesis), MT-2 cells: 0%
  CC50: > 62 µM
[1]
  IC50: 4.2 ± 0.2 µM

## Cc1nc(C(NC(=O)C(=O)Nc2ccc(Cl)cc2)C2CCCNC2)sc1CCO (centres unmarked) [Compound 10, N^1-(4-chlorophenyl)-N^2-((5-(2-hydroxyethyl)-4-methylthiazol-2-yl)(piperidin-3-yl)methyl)oxalamide.2HCl]
TZM-bl cells
  CC50: ~59.4 µM
MT-2 cells
  CC50: > 78.5 µM
[1]
  IC50: 13.1 ± 2.4 µM

## Cc1nc(C(NC(=O)C(=O)Nc2ccc(Cl)cc2)C2CCNCC2)sc1CCO (centres unmarked) [Compound 11, N^1-(4-chlorophenyl)-N^2-((5-(2-hydroxyethyl)-4-methylthiazol-2-yl)(piperidin-4-yl)methyl)oxalamide.2HCl]
TZM-bl cells
  CC50: ~85.4 µM
MT-2 cells
  CC50: > 78.5 µM
[1]
  IC50: 30.5 ± 3.4 µM

## Cc1nc(C(NC(=O)C(=O)Nc2ccc(Cl)cc2)C2CCCCN2C)sc1CCO (centres unmarked) [Compound 12, N^1-(4-chlorophenyl)-N^2-((5-(2-hydroxyethyl)-4-methylthiazol-2-yl)(1-methylpiperidin-2-yl)methyl)oxalamide]
TZM-bl cells; [2]
  CC50: 36 ± 3.3 µM

## Cc1nc(C(NC(=O)C(=O)Nc2ccc(Cl)cc2)C2CCCN2)sc1CO (centres unmarked) [Compound 14, N^1-(4-chlorophenyl)-N^2-((5-(hydroxymethyl)-4-methylthiazol-2-yl)(pyrrolidin-2-yl)methyl)oxalamide.HCOOH]
TZM-bl cells
  CC50: 12.4 ± 0.7 µM
MT-2 cells
  CC50: ~45 µM
[1]
  IC50: 15.4 ± 2.6 µM

## Cc1nc(C(NC(=O)C(=O)Nc2ccc(Cl)cc2)C2CCCN2)sc1CCO (centres unmarked) [Compound 15, N^1-(4-chlorophenyl)-N^2-((5-(2-hydroxyethyl)-4-methylthiazol-2-yl)(pyrrolidin-2-yl)methyl)oxalamide.HCOOH]
TZM-bl cells
  CC50: ~4.9 µM
MT-2 cells
  CC50: ~42 µM
[1]
  IC50: 16.2 ± 1.7 µM

## CNCC(NC(=O)C(=O)Nc1ccc(Cl)cc1)c1nc(C)c(CCO)s1 (centres unmarked) [Compound 16, N^1-(4-chlorophenyl)-N^2-(1-(5-(2-hydroxyethyl)-4-methylthiazol-2-yl)-2-(methylamino)ethyl)oxalamide.2HCl]
TZM-bl cells
  CC50: 16.6 ± 1 µM
MT-2 cells
  CC50: > 43 µM
[1]
  IC50: 24.3 ± 2.2 µM

## COC(=O)[C@@H]1C[C@@H](NC(=O)C(=O)Nc2ccc(Cl)cc2)[C@H](c2ccccc2)N1 [Compound 18, (2S,4R,5S)-methyl 4-(2-(4-chlorophenylamino)-2-oxoacetamido)-5-phenyl pyrrolidine-2-carboxylate]
TZM-bl cells; [2]
  CC50: > 99.6 µM
MT-2 cells; [3]
  CC50: > 99.6 µM
[1]
  IC50: > 24.9 µM

## Cc1nc(C(NC(=O)C(=O)Nc2ccc(C(F)(F)F)cc2)C2CCCCN2)sc1CO.Cl.Cl (centres unmarked) [Compound 20, N^1-((5-(hydroxymethyl)-4-methylthiazol-2-yl)(piperidin-2-yl)methyl)-N^2-(4-(trifluoromethyl)phenyl)oxalamide.2HCl]
TZM-bl cells; [2]
  CC50: > 75.5 µM
TZM-bl cells; [4]
  % toxicity at that dose (number in parenthesis), TZM-bl cells: 10%
MT-2 cells; [3]
  CC50: > 75.5 µM
[1]
  IC50: 4.6 ± 0.3 µM

## Cc1nc(C(NC(=O)C(=O)Nc2ccc(F)cc2F)C2CCCCN2)sc1CO (centres unmarked) [Compound 21, N^1-(2,4-difluorophenyl)-N^2-((5-(hydroxymethyl)-4-methylthiazol-2-yl)(piperidin-2-yl)methyl)oxalamide.HCl]
TZM-bl cells; [2]
  CC50: > 87 µM
MT-2 cells; [3]
  CC50: > 110 µM
[1]
  IC50: ~110 µM

## Cc1nc(C(NC(=O)C(=O)Nc2ccc(F)c(F)c2)C2CCCCN2)sc1CO.Cl (centres unmarked) [Compound 22, N^1-(3,4-difluorophenyl)-N^2-((5-(hydroxymethyl)-4-methylthiazol-2-yl)(piperidin-2-yl)methyl)oxalamide.HCl]
TZM-bl cells; [2]
  CC50: > 87 µM
TZM-bl cells; [4]
  % toxicity at that dose (number in parenthesis), TZM-bl cells: 0%
MT-2 cells; [3]
  CC50: > 87 µM
[1]
  IC50: 14 ± 3.8 µM

## CC(=O)c1ccc(NC(=O)C(=O)NC(c2nc(C)c(CO)s2)C2CCCCN2)cc1 (centres unmarked) [Compound 23, N^1-(4-acetylphenyl)-N^2-((5-(hydroxymethyl)-4-methylthiazol-2-yl)(piperidin-2-yl)methyl)oxalamide.HCl]
TZM-bl cells
  CC50: > 86 µM
MT-2 cells
  CC50: > 107 µM
[1]
  IC50: ~107 µM

## Cc1nc(C(NC(=O)C(=O)Nc2ccc(F)c(Cl)c2)C2CCCCN2)sc1CO.Cl.Cl (centres unmarked) [Compound 24, N^1-(3-chloro-4-fluorophenyl)-N^2-((5-(hydroxymethyl)-4-methylthiazol-2-yl)(piperidin-2-yl)methyl)oxalamide.2HCl]
TZM-bl cells
  % toxicity at that dose (number in parenthesis), TZM-bl cells: >77.8 (0%)
  CC50: > 77.8 µM
MT-2 cells
  CC50: > 77.8 µM
[1]
  IC50: 9.5 ± 1.4 µM

## Cc1nc(C(NC(=O)C(=O)Nc2ccc(F)cc2)C2CCCCN2)sc1CO.Cl (centres unmarked) [Compound 25, N^1-(4-fluorophenyl)-N^2-((5-(hydroxymethyl)-4-methylthiazol-2-yl)(piperidin-2-yl)methyl)oxalamide.HCl]
TZM-bl cells
  CC50: > 90 µM
TZM-bl cells; [4]
  % toxicity at that dose (number in parenthesis), TZM-bl cells: 0%
MT-2 cells
  CC50: > 113 µM
[1]
  IC50: 48 ± 5.5 µM

## Cc1ccc(NC(=O)C(=O)NC(c2nc(C)c(CO)s2)C2CCCCN2)c(F)c1 (centres unmarked) [Compound 26, N^1-(2-fluoro-4-methylphenyl)-N^2-((5-(hydroxymethyl)-4-methylthiazol-2-yl)(piperidin-2-yl)methyl)oxalamide.HCl]
TZM-bl cells; [2]
  CC50: > 88 µM
MT-2 cells; [3]
  CC50: > 109 µM
[1]
  IC50: ~66 µM

## Cc1nc(C(NC(=O)C(=O)NC2CCCCCC2)C2CCCCN2)sc1CO (centres unmarked) [Compound 29, N^1-cycloheptyl-N^2-((5-(hydroxymethyl)-4-methylthiazol-2-yl)(piperidin-2-yl)methyl)oxalamide.HCl]
TZM-bl cells; [2]
  CC50: > 90 µM
MT-2 cells; [3]
  CC50: > 90 µM
[1]
  IC50: 39.3 ± 5 µM

## Cc1nc(C(NC(=O)C(=O)Nc2ccc(Cl)cc2)C2CCCCN2)sc1CCO.O=CO (centres unmarked) [Compound 30, N^1-(4-chlorophenyl)-N^2-((5-(2-hydroxyethyl)-4-methylthiazol-2-yl)(piperidin-2-yl)methyl)oxalamide.HCOOH]
TZM-bl cells; [2]
  CC50: 32.8 ± 0.6 µM
MT-2 cells; [3]
  CC50: > 62 µM
MT-2 cells; [4]
  % toxicity at that dose (number in parenthesis), MT-2 cells: 0%
[1]
  IC50: 4.2 ± 0.3 µM

## Cc1nc(C(NC(=O)C(=O)Nc2ccc(C(F)(F)F)cc2)C2CCCCN2)sc1CCO.Cl.Cl (centres unmarked) [Compound 31, N^1-((5-(2-hydroxyethyl)-4-methylthiazol-2-yl)(piperidin-2-yl)methyl)-N^2-(4-(trifluoromethyl)phenyl)oxalamide.2HCl]
TZM-bl cells; [2]
  CC50: > 74 µM
TZM-bl cells; [4]
  % toxicity at that dose (number in parenthesis), TZM-bl cells: 35%
MT-2 cells; [3]
  CC50: > 39 µM
[1]
  IC50: 17.4 ± 5.7 µM

## Cc1nc(C(NC(=O)C(=O)Nc2ccc(F)cc2F)C2CCCCN2)sc1CCO (centres unmarked) [Compound 32, N^1-(2,4-difluorophenyl)-N^2-((5-(2-hydroxyethyl)-4-methylthiazol-2-yl)(piperidin-2-yl)methyl)oxalamide.HCl]
TZM-bl cells; [2]
  CC50: > 84 µM
MT-2 cells
  CC50: > 105 µM
[1]
  IC50: > 105 µM

## Cc1nc(C(NC(=O)C(=O)Nc2ccc(F)c(F)c2)C2CCCCN2)sc1CCO.Cl.Cl (centres unmarked) [Compound 33, N^1-(3,4-difluorophenyl)-N^2-((5-(2-hydroxyethyl)-4-methylthiazol-2-yl)(piperidin-2-yl)methyl)oxalamide.2HCl]
TZM-bl cells; [2]
  CC50: > 78.2 µM
TZM-bl cells; [4]
  % toxicity at that dose (number in parenthesis), TZM-bl cells: 10%
MT-2 cells; [3]
  CC50: > 78.2 µM
[1]
  IC50: 24.1 ± 4.6 µM

## CC(=O)c1ccc(NC(=O)C(=O)NC(c2nc(C)c(CCO)s2)C2CCCCN2)cc1 (centres unmarked) [Compound 34, N^1-(4-acetylphenyl)-N^2-((5-(2-hydroxyethyl)-4-methylthiazol-2-yl)(piperidin-2-yl)methyl)oxalamide.2HCl]
TZM-bl cells
  CC50: > 77.3 µM
MT-2 cells
  CC50: > 48.3 µM
[1]
  IC50: 24.5 ± 1.5 µM

## Cc1nc(C(NC(=O)C(=O)Nc2ccc(F)c(Cl)c2)C2CCCCN2)sc1CCO.Cl.Cl (centres unmarked) [Compound 35, N^1-(3-chloro-4-fluorophenyl)-N^2-((5-(2-hydroxyethyl)-4-methylthiazol-2-yl)(piperidin-2-yl)methyl)oxalamide.2HCl]
TZM-bl cells
  % toxicity at that dose (number in parenthesis), TZM-bl cells: >75.8 (20%)
  CC50: > 75.8 µM
MT-2 cells
  CC50: ~94.7 µM
[1]
  IC50: 19.5 ± 1.8 µM

## Cc1nc(C(NC(=O)C(=O)Nc2ccc(F)cc2)C2CCCCN2)sc1CCO (centres unmarked) [Compound 36, N^1-(4-fluorophenyl)-N^2-((5-(2-hydroxyethyl)-4-methylthiazol-2-yl)(piperidin-2-yl)methyl)oxalamide.HCl]
TZM-bl cells
  CC50: > 88 µM
MT-2 cells
  CC50: ~109 µM

## Cc1ccc(NC(=O)C(=O)NC(c2nc(C)c(CCO)s2)C2CCCCN2)c(F)c1 (centres unmarked) [Compound 37, N^1-(2-fluoro-4-methylphenyl)-N^2-((5-(2-hydroxyethyl)-4-methylthiazol-2-yl)(piperidin-2-yl)methyl)oxalamide.2HCl]
TZM-bl cells; [2]
  CC50: > 78.8 µM
MT-2 cells; [3]
  CC50: > 78.8 µM
[1]
  IC50: 45.8 ± 3.5 µM

Reference: US20140377219A1, “HIV INHIBITORS” (New york Blood Center, Inc., priority 2011, published 2014)
